Source: USRE40086E1, “Method for treating bacterial infection with novel 7-substituted-9-substituted amino 6-demethyl-6-deoxytetracyclines” (Wyeth Holdings Corporation, priority 1991, dated 2008)
In brackets after ≈: the same amount, converted by molar mass.

Legend:
Assay in all cases: MIC, agar dilution
Format in all cases: cell-based
[1] = tested on: S. aureus UBMS 90-1 (tetM); settings: S. aureus UBMS 90-1 (tetM)
[2] = tested on: S. aureus UBMS 90-3 (Sensitive); settings: S. aureus UBMS 90-3 (Sensitive)
[3] = tested on: S. aureus UBMS 88-7 (tetK); settings: S. aureus UBMS 88-7 (tetK)
E. coli ATCC 25922 = settings: E. coli ATCC 25922
[4] = tested on: S. aureus IVES 1983 (meth. resistant); settings: S. aureus IVES 1983 (meth. resistant)
E. coli UBMS 89-1 (tetM) = settings: E. coli UBMS 89-1 (tetM)
[5] = tested on: S. haemolyticus AVAH 88-3; settings: S. haemolyticus AVAH 88-3
[6] = tested on: S. aureus Smith (Sensitive); settings: S. aureus Smith (Sensitive)
[7] = tested on: S. aureus UBMS 88-4 (Sensitive); settings: S. aureus UBMS 88-4 (Sensitive)
[8] = tested on: E. coli UBMS 89-2 (Sensitive); settings: E. coli UBMS 89-2 (Sensitive)
E. coli UBMS 88-1 (tetB) = settings: E. coli UBMS 88-1 (tetB)
[9] = tested on: S. aureus IVES 2943 (meth. resistant); settings: S. aureus IVES 2943 (meth. resistant)
E. faecalis ATCC 29212 = settings: E. faecalis ATCC 29212
[10] = tested on: S. aureus ATCC 29213 (Sensitive); settings: S. aureus ATCC 29213 (Sensitive)
[11] = tested on: S. aureus UBMS 90-2 (tetM); settings: S. aureus UBMS 90-2 (tetM)
[12] = tested on: E. coli UBMS 88-2 (Sensitive); settings: E. coli UBMS 88-2 (Sensitive)
[13] = tested on: S. aureus UBMS 88-5 (tetM); settings: S. aureus UBMS 88-5 (tetM)
E. faecalis 12201 = settings: E. faecalis 12201

| SMILES | MIC [1] [µg/mL] | MIC [2] [µg/mL] | MIC [3] [µg/mL] | MIC (E. coli ATCC 25922) | MIC [4] [µg/mL] | MIC (E. coli UBMS 89-1 (tetM)) [µg/mL] | MIC [5] [µg/mL] | MIC [6] | MIC [7] [µg/mL] | MIC [8] | MIC (E. coli UBMS 88-1 (tetB)) [µg/mL] | MIC [9] [µg/mL] | MIC (E. faecalis ATCC 29212) [µg/mL] | MIC [10] | MIC [11] [µg/mL] | MIC [12] [µg/mL] | MIC [13] [µg/mL] | MIC (E. faecalis 12201) [µg/mL] |
| --- | --- | --- | --- | --- | --- | --- | --- | --- | --- | --- | --- | --- | --- | --- | --- | --- | --- | --- |
| CCN(CC)c1cc(NC(C)=O)c(O)c2c1CC1CC3C(N(C)C)C(O)=C(C(N)=O)C(=O)C3(O)C(O)=C1C2=O (stereo not drawn) [F, 9-(Acetylamino)-7-(diethylamino)-6-demethyl-6-deoxytetracycline] | 2 (≈ 3.69 µM) | 0.12 (≈ 0.221 µM) | 2 (≈ 3.69 µM) | 4 µg/mL (≈ 7.37 µM) | 4 (≈ 7.37 µM) | 4 (≈ 7.37 µM) | 2 (≈ 3.69 µM) | 0.12 µg/mL (≈ 0.221 µM) | 0.25 (≈ 0.461 µM) | 32 µg/mL (≈ 59 µM) | >32 | 2 (≈ 3.69 µM) | 0.25 (≈ 0.461 µM) | ≦0.015 μg/ml | 0.5 (≈ 0.922 µM) | 32 (≈ 59 µM) | 0.5 (≈ 0.922 µM) | 4 (≈ 7.37 µM) |
| CN(C)c1cc(NC(=O)COCc2ccccc2)c(O)c2c1CC1CC3C(N(C)C)C(O)=C(C(N)=O)C(=O)C3(O)C(O)=C1C2=O (stereo not drawn) [J, 7-(Dimethylamino)-9-([(phenylmethoxy)acetyl)amino]-6-demethyl-6-deoxytetracycline] | 4 (≈ 6.44 µM) | 0.5 (≈ 0.806 µM) | 2 (≈ 3.22 µM) | 32 µg/mL (≈ 51.6 µM) | 4 (≈ 6.44 µM) | >32 | 4 (≈ 6.44 µM) | 0.5 µg/mL (≈ 0.806 µM) | 2 (≈ 3.22 µM) | >32 µg/mL | >32 | 4 (≈ 6.44 µM) | 4 (≈ 6.44 µM) | 0.06 µg/mL (≈ 0.0967 µM) | 2 (≈ 3.22 µM) | >32 | 4 (≈ 6.44 µM) | 2 (≈ 3.22 µM) |
| CC(=O)OCC(=O)Nc1cc(N(C)C)c2c(c1O)C(=O)C1=C(O)[C@]3(O)C(=O)C(C(N)=O)=C(O)[C@@H](N(C)C)[C@@H]3C[C@@H]1C2 [K, 9-[[(Acetyloxy)acetyl]amino)-7-(dimethylamino)-6-demethyl-6-deoxytetracycline] | 0.25 (≈ 0.437 µM) | 0.03 (≈ 0.0524 µM) | 32 (≈ 55.9 µM) | 4 µg/mL (≈ 6.99 µM) | 32 (≈ 55.9 µM) | 1 (≈ 1.75 µM) | 0.5 (≈ 0.873 µM) | ≦0.015 μg/ml | 0.12 (≈ 0.21 µM) | 8 µg/mL (≈ 14 µM) | 16 (≈ 27.9 µM) | 32 (≈ 55.9 µM) | 0.06 (≈ 0.105 µM) | ≦0.015 μg/ml | 0.06 (≈ 0.105 µM) | 4 (≈ 6.99 µM) | 0.25 (≈ 0.437 µM) | 0.25 (≈ 0.437 µM) |
| CN(C)c1cc(NC(=O)CO)c(O)c2c1CC1CC3C(N(C)C)C(O)=C(C(N)=O)C(=O)C3(O)C(O)=C1C2=O (stereo not drawn) [L, 7-(Dimethylamino)-9-[(hydroxyacetyl)amino]-6-demethyl-6-deoxytetracycline] | 8 (≈ 15.1 µM) | 1 (≈ 1.88 µM) | >32 | 32 µg/mL (≈ 60.3 µM) | >32 | >32 | 16 (≈ 30.2 µM) | 0.5 µg/mL (≈ 0.942 µM) | 4 (≈ 7.54 µM) | >32 µg/mL | >32 | >32 | 2 (≈ 3.77 µM) | 0.5 µg/mL (≈ 0.942 µM) | 2 (≈ 3.77 µM) | >32 | 4 (≈ 7.54 µM) | 4 (≈ 7.54 µM) |
| CN(C)c1cc(NC(=O)CN)c(O)c2c1CC1CC3C(N(C)C)C(O)=C(C(N)=O)C(=O)C3(O)C(O)=C1C2=O.O=C(O)C(F)(F)F (stereo not drawn) [M, 9-[(Aminoacetyl)amino]-7-(dimethylamino)-6-demethyl-6-deoxytetracycline mono(trifluoroacetate)] | 2 | 0.5 | >32 | 2 µg/mL | >32 | 2 | 1 | 1 µg/mL | 1 | 2 µg/mL | 2 | >32 | 0.25 | 0.5 µg/mL | 0.5 | 2 | 1 | 0.25 |
| CN(C)c1cc(NC(=O)c2cccc(C(F)(F)F)c2)c(O)c2c1CC1CC3C(N(C)C)C(O)=C(C(N)=O)C(=O)C3(O)C(O)=C1C2=O (stereo not drawn) [U, 7-(Dimethylamino)-9-[[3-(trifluoromethyl)benzoyl)amino]-6-demethyl-6-deoxytetracycline] | 1 (≈ 1.55 µM) | 0.5 (≈ 0.776 µM) | 1 (≈ 1.55 µM) | ≧32 μg/ml | 1 (≈ 1.55 µM) | >32 | 1 (≈ 1.55 µM) | 1 µg/mL (≈ 1.55 µM) | 0.5 (≈ 0.776 µM) | ≧32 μg/ml | >32 | 1 (≈ 1.55 µM) | 1 (≈ 1.55 µM) | 0.5 µg/mL (≈ 0.776 µM) | 1 (≈ 1.55 µM) | >32 | 1 (≈ 1.55 µM) | 1 (≈ 1.55 µM) |
| CN(C)c1cc(NC(=O)c2ccc([N+](=O)[O-])cc2)c(O)c2c1CC1CC3C(N(C)C)C(O)=C(C(N)=O)C(=O)C3(O)C(O)=C1C2=O (stereo not drawn) [V, 7-(Dimethylamino)-9-[(4-nitrobenzoyl)amino]-6-demethyl-6-deoxytetracycline] | 2 (≈ 3.22 µM) | 0.5 (≈ 0.804 µM) | 4 (≈ 6.43 µM) | >32 µg/mL | 8 (≈ 12.9 µM) | >32 | 4 (≈ 6.43 µM) | 0.5 µg/mL (≈ 0.804 µM) | 2 (≈ 3.22 µM) | >32 µg/mL | >32 | 4 (≈ 6.43 µM) | 4 (≈ 6.43 µM) | 0.25 µg/mL (≈ 0.402 µM) | 1 (≈ 1.61 µM) | >32 | 2 (≈ 3.22 µM) | 4 (≈ 6.43 µM) |
| CN(C)c1ccc(C(=O)Nc2cc(N(C)C)c3c(c2O)C(=O)C2=C(O)[C@]4(O)C(=O)C(C(N)=O)=C(O)[C@@H](N(C)C)[C@@H]4C[C@@H]2C3)cc1 [W, 7-(Dimethylamino)-9-[[(4-dimethylamino)benzoyl)amino)-6-demethyl-6-deoxytetracycline] | 16 (≈ 25.8 µM) | 8 (≈ 12.9 µM) | 16 (≈ 25.8 µM) | >32 µg/mL | 8 (≈ 12.9 µM) | >32 | 16 (≈ 25.8 µM) | 4 µg/mL (≈ 6.45 µM) | 8 (≈ 12.9 µM) | >32 µg/mL | >32 | 8 (≈ 12.9 µM) | 8 (≈ 12.9 µM) | 2 µg/mL (≈ 3.23 µM) | 8 (≈ 12.9 µM) | >32 | 32 (≈ 51.6 µM) | 16 (≈ 25.8 µM) |
| CN(C)c1cc(NC(=O)c2ccc(N)cc2)c(O)c2c1CC1CC3C(N(C)C)C(O)=C(C(N)=O)C(=O)C3(O)C(O)=C1C2=O.O=S(=O)(O)O (stereo not drawn) [X, 9-[(4-Aminobenzoyl)amino)-7-(dimethylamino)-6-demethyl-6-deoxytetracycline sulfate] | 16 | 1 | 8 | >32 µg/mL | >32 | >32 | 8 | 1 µg/mL | 1 | >32 µg/mL | >32 | >32 | 8 | 0.5 µg/mL | 8 | >32 | 8 | 32 |
| CN(C)c1cc(NC(=O)c2ccco2)c(O)c2c1CC1CC3C(N(C)C)C(O)=C(C(N)=O)C(=O)C3(O)C(O)=C1C2=O (stereo not drawn) [Y, 7-(Dimethylamino)-9-((2-furanylcarbonyl)amino)-6-demethyl-6-deoxytetracycline] | 32 (≈ 56.5 µM) | 2 (≈ 3.53 µM) | >32 | >32 µg/mL | >32 | >32 | >32 | 2 µg/mL (≈ 3.53 µM) | 4 (≈ 7.06 µM) | >32 µg/mL | >32 | >32 | 8 (≈ 14.1 µM) | 0.5 µg/mL (≈ 0.883 µM) | 8 (≈ 14.1 µM) | >32 | 16 (≈ 28.2 µM) | 32 (≈ 56.5 µM) |
